Inconclusive results are not listed. Calls of active or inactive are those of the source. No rule for the calls is given here.

This data set concerns S. typhimurium/E. coli reverse mutation, colony counts. The data set can be described thus: Bacterial reverse mutation test (aka Ames test) summary data. An outline of the steps: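 S. typhimurium his⁻ strains (TA97–TA1538) and E. coli WP2 uvrA pKM101 trp⁻, dosed over a range with or without rat, hamster or mouse liver S9. Preincubated 20 min at 37° C (or plate incorporation), plated in agar, incubated usually two days. Revertant colonies counted against negative controls.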
A general note: The Ames test detects mutagens through reverse mutation in bacteria.

As to `OCCC(F)(F)C(F)(F)C(F)(F)C(F)(F)C(F)(F)C(F)(F)C(F)(F)C(F)(F)C(F)(F)C(F)(F)F`, the outcome is “inactive; negative”. `CCCCOC(=O)c1ccccc1C(=O)OCCCC`: the outcome is “inactive; negative”. With `OCCC(F)(F)C(F)(F)C(F)(F)C(F)(F)C(F)(F)C(F)(F)C(F)(F)C(F)(F)F`, the outcome is “inactive; negative”.

For `CC(C)CNCC(C)C`, the outcome was “inactive; negative”.

For `Nc1nc2ccc([N+](=O)[O-])cc2s1`, the outcome was “active; positive”. In the case of `CCCCc1ccc(N=Cc2ccc(OC)cc2)cc1`, the outcome was “active; positive”. As for `O=[N+]([O-])c1cc([N+](=O)[O-])c2ccccc2c1`, the entry is “active; positive”. As to `Brc1cccc(-c2ccccc2)c1`, the outcome is “inactive; negative”. `NC(=O)NO`: the outcome is “inactive; negative”. In the case of `Oc1ccc2ccccc2c1N=Nc1ccccc1`, the outcome is “active; positive”.

With `CCCNCCC`, the outcome is “inactive; negative”.

For the compound `NC(N)=NC(N)=NCCc1ccccc1`, the outcome was “inactive; negative”.

Consider `c1ccc2cc(Nc3ccc(Nc4ccc5ccccc5c4)cc3)ccc2c1`, for which the outcome was “active; positive”. For `CCOC(C)OCC`, the outcome is “active; positive”. For the compound `O=[N+]([O-])c1cc([N+](=O)[O-])c2ccc(S(=O)(=O)O)cc2c1O`, the outcome is “active; positive”. As to `Nc1ccc(S(=O)(=O)Nc2ccccn2)cc1`, the outcome is “inactive; negative”. As to `O=[N+]([O-])c1ccc(Nc2ccccc2O)c([N+](=O)[O-])c1`, the outcome is “active; positive”.

Turning to `Clc1ccccc1Cl`, the outcome was “inactive; negative”. `CC(=O)NS(=O)(=O)c1ccc(N)cc1`: the outcome is “inactive; negative”. For `CCCCCCCCCC=CCC1CC(=O)OC1=O` (centres undefined), the outcome was “inactive; negative”.

Regarding `O=C(O)CC[N+](=O)[O-]`, the outcome is “active; positive”. As for `O=C1C(Cl)=C(Cl)C(=O)C(Cl)=C1Cl`, the entry is “active; positive”. `Nc1ccc2cc3ccccc3cc2c1`: the outcome was “active; positive”. Take `CC(C)OC(=O)Cc1ccccc1`: the outcome is “inactive; negative”. `C=CC(=O)OCC(CC)(COC(=O)C=C)COC(=O)C=C`: the outcome is “inactive; negative”.

Regarding `Oc1ccc(Cl)c(Cl)c1Cl`, the outcome was “inactive; negative”. Consider `C=CC(=O)OCC(C)C`, for which the outcome was “inactive; negative”.

On to `Cl`, for which the outcome was “inactive; negative”.

Take `COc1ccc(N)cc1N`: the outcome was “active; positive”. With `N#Cc1ccccc1` the entry was “inactive; negative”.

`C=CCBr`: the outcome is “active; positive”.

As to `Oc1cccc2cc3cccc(O)c3c(O)c12`, the outcome was “inactive; negative”.

`Cc1cc2nc(N)sc2cc1C`: the outcome is “active; positive”. On to `CCCCCCCCC`, for which the outcome is “inactive; negative”. As for `CC=CC=CC=O`, the entry is “active; positive”; as for `Cc1cc(N)ccc1-c1ccc(N)cc1C`, “active; positive”; as for `CCCCCCCCCCCC(C)=O`, “inactive; negative”. For the compound `CC(C)(c1ccc(O)cc1)c1ccc(O)cc1`, the outcome is “inactive; negative”. In the case of `CCN(Cc1cccc(S(=O)(=O)[O-])c1)c1ccc(C(=C2C=CC(=[N+](C)C)C=C2)c2ccc(N(CC)Cc3cccc(S(=O)(=O)O)c3)cc2)cc1`, the outcome is “active; positive”.

As for `O=CNc1ccccc1`, the outcome was “inactive; negative”. `O=C(O)c1cc(Cl)cc(Cl)c1`: the outcome was “inactive; negative”. Turning to `Clc1ccc(N=Nc2ccc(Cl)c(Cl)c2)cc1Cl`, the outcome is “active; positive”. As for `ClCc1ccccn1`, the entry is “active; positive”; as for `CCCCCO`, “inactive; negative”; as for `Nc1nc(=S)c2[nH]cnc2[nH]1`, “active; positive”.

On to `CC(=O)O[C@]1(C(C)=O)CC[C@H]2[C@@H]3C[C@H](C)C4=CC(=O)CC[C@]4(C)[C@H]3CC[C@@]21C`, for which the outcome was “inactive; negative”. For the compound `Cc1cc(O)c2c(c1)C(=O)c1cccc(O)c1C2=O`, the outcome is “active; weakly positive”. On to `CCOc1ccccc1C(N)=O`, for which the outcome was “inactive; negative”.

`O=C(O)c1cc(Cl)ccc1Cl`: the outcome is “inactive; negative”. Regarding `C=CC(=O)O`, the outcome is “inactive; negative”. On to `CN(C)C(=O)Cl`, for which the outcome is “active; positive”.

`Nc1cc([N+](=O)[O-])ccc1O`: the outcome was “active; positive”. On to `C[n+]1cccc(C(=O)[O-])c1`, for which the outcome is “inactive; negative”. `CC(CO)(CO)[N+](=O)[O-]`: the outcome was “inactive; negative”. As for `CC(C)(C)c1ccc(OCC2CO2)cc1` (centres undefined), the entry is “active; positive”.

Consider `ClCCBr`, for which the outcome is “active; positive”.

Regarding `CC=C(Cl)Cl`, the outcome is “inactive; negative”. Regarding `C=CC(=O)NCNC(=O)C=C`, the outcome was “active; positive”.

As for `CC(Cl)Cl`, the outcome is “inactive; negative”. With `Clc1ccc(COC(Cn2ccnc2)c2ccc(Cl)cc2Cl)cc1` (centres undefined), the outcome was “inactive; negative”.

On to `Cc1ccc(C#N)cc1`, for which the outcome was “inactive; negative”. With `Nc1cccc(Cl)c1`, the outcome is “inactive; negative”. For the compound `CC=C1CC2C=CC1C2` (centres undefined), the outcome is “inactive; negative”. With `CC(=O)Nc1ccc(C(=O)CCl)cc1`, the outcome is “active; positive”. `Cc1ccccc1C(=O)O`: the outcome is “inactive; negative”.

With `N#CCc1ccccc1[N+](=O)[O-]`, the outcome was “active; positive”. For the compound `CC(=O)Oc1ccccc1C(=O)O`, the outcome is “inactive; negative”. In the case of `O=C([O-])c1ccccn1.O=C([O-])c1ccccn1.O=C([O-])c1ccccn1.[Cr+3]`, the outcome was “inactive; negative”. For `COc1cc([N+](=O)[O-])ccc1N`, the outcome is “active; positive”.

In the case of `Nc1cc(Cl)cc(C(=O)O)c1Cl`, the outcome is “active; positive”. Consider `O=C1NS(=O)(=O)c2ccccc21`, for which the outcome is “inactive; negative”. On to `C=C(C)[C@@]12O[C@@]3(c4ccccc4)O[C@@H]1[C@@H]1[C@@H]4O[C@]4(CO)[C@@H](O)[C@]4(O)C(=O)C(C)=C[C@H]4[C@@]1(O3)[C@H](C)[C@H]2OC(=O)/C=C/C=C/c1ccccc1`, for which the outcome is “inactive; negative”. For the compound `CC(C)=CCC/C(C)=C/CC/C(C)=C/CC/C=C(\C)CC/C=C(\C)CCC=C(C)C`, the outcome was “inactive; negative”.

For the compound `CCCCCCOC(=O)c1ccccc1`, the outcome is “inactive; negative”. As for `CCCC(=O)O`, the outcome is “inactive; negative”. On to `CCCCCCCCCCC1CO1` (centres undefined), for which the outcome is “inactive; negative”.

Turning to `O=Cc1cccc(Br)c1`, the outcome is “inactive; negative”. With `CCCCCCCCC1CO1` (centres undefined), the outcome is “inactive; negative”. For the compound `CCCCCCCC/C=C\CCCCCCCC(=O)O` (tested in a mixture with another compound), the outcome is “inactive; negative”.

For the origin of these results see PubChem BioAssay AID2202554 (NIEHS Division of Translational Toxicology (DTT)).
